Each structure is given as a SMILES string. Read-outs that look alike come from different tables or passages of the source.

Holding throughout (assay type): biochemical
In assay [1] the target is 320 wild-type protein kinases (Homo sapiens, UniProt P19784). As to conditions: singlicate. The text has this:
(§1) Table S4. Profiling of two compounds at two concentrations against 320 wild-type protein kinases; singlicate measurement; Residual activities (% of control).

Assay [2] deals with 320 wild-type protein kinases (Homo sapiens, UniProt P23443). As to conditions: kinase S6K, singlicate.
Excerpt: as §1

Assay [3] addresses 320 wild-type protein kinases (Homo sapiens, UniProt P34947). The conditions noted are these: singlicate.
Excerpt: as §1

Assay [4] deals with 320 wild-type protein kinases (Homo sapiens, UniProt P49137). As to conditions: singlicate.
Excerpt: as §1

Assay [5] addresses 320 wild-type protein kinases (Homo sapiens, UniProt P50613). The conditions noted are these: singlicate.
Excerpt: as §1

Assay [6] addresses 320 wild-type protein kinases (Homo sapiens, UniProt Q13882). The conditions noted are these: BRK, singlicate.
Excerpt: as §1

The target of assay [7] is 320 wild-type protein kinases (Homo sapiens, UniProt Q86Y07). As to conditions: kinase VRK2, singlicate.
Excerpt: as §1

Assay [8] has as its target T1, 320 wild-type protein kinases (Homo sapiens, UniProt Q8TD08).
T1 sequence (Q8TD08 1-544): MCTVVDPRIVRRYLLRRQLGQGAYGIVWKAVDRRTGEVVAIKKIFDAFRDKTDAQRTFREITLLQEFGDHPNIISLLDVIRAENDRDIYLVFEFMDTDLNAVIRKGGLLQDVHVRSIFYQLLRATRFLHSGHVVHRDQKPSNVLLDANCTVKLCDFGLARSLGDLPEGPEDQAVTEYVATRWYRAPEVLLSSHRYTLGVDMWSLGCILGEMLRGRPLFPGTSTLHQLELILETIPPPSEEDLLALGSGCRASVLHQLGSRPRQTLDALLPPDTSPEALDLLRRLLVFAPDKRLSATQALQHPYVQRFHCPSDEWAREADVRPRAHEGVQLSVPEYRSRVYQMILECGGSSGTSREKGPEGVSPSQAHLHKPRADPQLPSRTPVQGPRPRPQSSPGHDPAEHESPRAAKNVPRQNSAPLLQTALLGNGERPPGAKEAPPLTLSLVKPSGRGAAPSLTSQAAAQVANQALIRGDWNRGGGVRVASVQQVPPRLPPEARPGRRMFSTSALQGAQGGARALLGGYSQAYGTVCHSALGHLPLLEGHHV
As to conditions: singlicate.
Excerpt: as §1

For assay [9], the target named is 320 wild-type protein kinases (Homo sapiens, UniProt Q9BYP7). The conditions noted are these: kinase WNK3, singlicate.
Excerpt: as §1

In assay [10] the target is T2, 320 wild-type protein kinases (Homo sapiens, UniProt Q9NR20).
T2 sequence (Q9NR20 1-520): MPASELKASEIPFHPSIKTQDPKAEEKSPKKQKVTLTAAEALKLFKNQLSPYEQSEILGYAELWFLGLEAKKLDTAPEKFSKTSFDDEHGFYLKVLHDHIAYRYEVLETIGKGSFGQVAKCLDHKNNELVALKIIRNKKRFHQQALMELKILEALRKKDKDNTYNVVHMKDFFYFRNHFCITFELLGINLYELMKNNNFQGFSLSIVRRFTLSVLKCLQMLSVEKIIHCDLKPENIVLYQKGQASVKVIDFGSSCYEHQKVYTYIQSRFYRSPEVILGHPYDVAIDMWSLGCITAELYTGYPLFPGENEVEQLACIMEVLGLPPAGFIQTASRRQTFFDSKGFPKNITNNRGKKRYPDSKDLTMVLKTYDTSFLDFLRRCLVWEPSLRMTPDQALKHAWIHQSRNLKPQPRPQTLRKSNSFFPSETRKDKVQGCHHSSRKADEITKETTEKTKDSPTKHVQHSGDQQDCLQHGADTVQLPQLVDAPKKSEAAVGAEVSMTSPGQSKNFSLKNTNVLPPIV
The conditions noted are these: singlicate.
Excerpt: as §1

Assay [11] addresses 320 wild-type protein kinases (Homo sapiens, UniProt Q9P0L2). As to conditions: singlicate.
Excerpt: as §1

Sequence of 320 wild-type protein kinases (Homo sapiens, UniProt Q9BYP7) (Q9BYP7 whole entry): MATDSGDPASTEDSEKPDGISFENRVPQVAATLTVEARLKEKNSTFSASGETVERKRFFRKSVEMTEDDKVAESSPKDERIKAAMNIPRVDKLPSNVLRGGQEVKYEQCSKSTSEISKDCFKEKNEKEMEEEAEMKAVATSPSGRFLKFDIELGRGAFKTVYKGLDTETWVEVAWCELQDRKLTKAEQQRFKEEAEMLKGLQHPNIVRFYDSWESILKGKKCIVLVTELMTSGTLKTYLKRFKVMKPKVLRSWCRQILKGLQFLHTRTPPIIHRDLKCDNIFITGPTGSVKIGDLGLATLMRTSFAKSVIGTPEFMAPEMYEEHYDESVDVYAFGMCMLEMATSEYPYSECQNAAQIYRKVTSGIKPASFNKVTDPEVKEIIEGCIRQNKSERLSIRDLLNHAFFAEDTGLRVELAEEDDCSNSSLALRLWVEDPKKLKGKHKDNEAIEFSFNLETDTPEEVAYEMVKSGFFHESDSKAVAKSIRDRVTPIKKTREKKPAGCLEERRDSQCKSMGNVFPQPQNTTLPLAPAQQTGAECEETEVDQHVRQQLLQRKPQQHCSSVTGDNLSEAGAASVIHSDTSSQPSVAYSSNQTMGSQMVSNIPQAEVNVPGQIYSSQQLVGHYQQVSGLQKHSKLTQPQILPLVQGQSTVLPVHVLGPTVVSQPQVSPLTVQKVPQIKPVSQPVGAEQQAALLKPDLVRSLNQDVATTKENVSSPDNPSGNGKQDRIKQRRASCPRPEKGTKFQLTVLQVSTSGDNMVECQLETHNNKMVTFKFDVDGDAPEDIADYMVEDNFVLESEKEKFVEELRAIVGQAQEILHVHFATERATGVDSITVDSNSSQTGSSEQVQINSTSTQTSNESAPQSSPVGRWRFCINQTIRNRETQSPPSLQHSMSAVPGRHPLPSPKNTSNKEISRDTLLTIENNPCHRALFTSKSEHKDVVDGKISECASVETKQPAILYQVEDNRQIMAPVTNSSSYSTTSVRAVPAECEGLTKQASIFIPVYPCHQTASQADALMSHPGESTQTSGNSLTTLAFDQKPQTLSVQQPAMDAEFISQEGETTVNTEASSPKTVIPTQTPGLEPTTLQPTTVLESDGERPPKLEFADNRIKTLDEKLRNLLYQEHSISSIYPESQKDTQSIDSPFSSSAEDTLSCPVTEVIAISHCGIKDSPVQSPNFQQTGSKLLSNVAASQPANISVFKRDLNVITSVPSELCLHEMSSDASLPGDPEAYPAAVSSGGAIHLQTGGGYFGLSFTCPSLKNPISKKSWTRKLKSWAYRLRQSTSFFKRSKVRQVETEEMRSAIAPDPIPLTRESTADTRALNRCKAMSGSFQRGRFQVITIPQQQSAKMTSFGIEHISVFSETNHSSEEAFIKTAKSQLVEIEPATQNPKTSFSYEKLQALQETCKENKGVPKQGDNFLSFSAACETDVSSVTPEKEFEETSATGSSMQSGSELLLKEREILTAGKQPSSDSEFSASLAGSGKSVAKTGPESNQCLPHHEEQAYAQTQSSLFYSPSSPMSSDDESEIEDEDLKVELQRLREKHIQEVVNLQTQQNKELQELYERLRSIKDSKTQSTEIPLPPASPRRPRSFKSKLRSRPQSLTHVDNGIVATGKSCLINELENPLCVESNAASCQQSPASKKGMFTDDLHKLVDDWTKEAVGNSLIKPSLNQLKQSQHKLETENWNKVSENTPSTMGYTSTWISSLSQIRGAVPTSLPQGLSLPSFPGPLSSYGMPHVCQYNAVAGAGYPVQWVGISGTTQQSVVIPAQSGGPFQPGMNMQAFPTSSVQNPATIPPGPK
Sequence of 320 wild-type protein kinases (Homo sapiens, UniProt Q9P0L2) (Q9P0L2 whole entry): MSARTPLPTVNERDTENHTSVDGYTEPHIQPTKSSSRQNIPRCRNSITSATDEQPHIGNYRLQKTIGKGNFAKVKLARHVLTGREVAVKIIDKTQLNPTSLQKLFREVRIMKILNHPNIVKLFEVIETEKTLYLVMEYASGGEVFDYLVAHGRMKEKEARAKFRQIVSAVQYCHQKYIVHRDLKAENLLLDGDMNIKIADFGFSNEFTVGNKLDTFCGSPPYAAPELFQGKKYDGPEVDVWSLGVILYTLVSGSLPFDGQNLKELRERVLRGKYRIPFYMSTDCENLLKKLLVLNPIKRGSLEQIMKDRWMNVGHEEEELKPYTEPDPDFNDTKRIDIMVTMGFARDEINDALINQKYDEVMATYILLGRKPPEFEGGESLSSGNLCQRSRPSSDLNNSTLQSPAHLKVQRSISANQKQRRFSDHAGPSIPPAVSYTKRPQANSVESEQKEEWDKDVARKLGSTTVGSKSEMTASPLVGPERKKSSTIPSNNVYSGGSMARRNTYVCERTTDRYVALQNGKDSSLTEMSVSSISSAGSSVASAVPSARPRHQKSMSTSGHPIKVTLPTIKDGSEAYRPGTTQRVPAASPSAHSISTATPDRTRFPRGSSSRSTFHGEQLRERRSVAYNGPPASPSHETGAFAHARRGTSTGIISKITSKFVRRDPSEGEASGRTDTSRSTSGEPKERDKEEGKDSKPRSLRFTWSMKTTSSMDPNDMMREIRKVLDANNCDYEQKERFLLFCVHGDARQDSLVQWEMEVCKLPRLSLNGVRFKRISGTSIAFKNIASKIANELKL
Sequence of 320 wild-type protein kinases (Homo sapiens, UniProt Q86Y07) (Q86Y07 whole entry): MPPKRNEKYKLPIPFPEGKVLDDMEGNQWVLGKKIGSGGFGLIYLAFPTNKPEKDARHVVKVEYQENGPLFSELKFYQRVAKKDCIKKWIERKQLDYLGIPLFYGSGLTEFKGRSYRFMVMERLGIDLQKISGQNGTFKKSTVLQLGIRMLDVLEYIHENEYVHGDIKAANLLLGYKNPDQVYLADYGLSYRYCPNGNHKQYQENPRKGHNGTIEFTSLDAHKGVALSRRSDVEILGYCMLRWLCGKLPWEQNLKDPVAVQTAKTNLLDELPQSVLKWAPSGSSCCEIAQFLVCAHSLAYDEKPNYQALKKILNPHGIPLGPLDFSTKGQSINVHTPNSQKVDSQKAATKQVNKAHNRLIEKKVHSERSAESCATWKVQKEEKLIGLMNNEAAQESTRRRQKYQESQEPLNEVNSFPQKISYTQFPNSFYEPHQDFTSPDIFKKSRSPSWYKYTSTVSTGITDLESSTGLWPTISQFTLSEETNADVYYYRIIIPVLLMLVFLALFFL
Sequence of 320 wild-type protein kinases (Homo sapiens, UniProt P23443) (P23443 whole entry): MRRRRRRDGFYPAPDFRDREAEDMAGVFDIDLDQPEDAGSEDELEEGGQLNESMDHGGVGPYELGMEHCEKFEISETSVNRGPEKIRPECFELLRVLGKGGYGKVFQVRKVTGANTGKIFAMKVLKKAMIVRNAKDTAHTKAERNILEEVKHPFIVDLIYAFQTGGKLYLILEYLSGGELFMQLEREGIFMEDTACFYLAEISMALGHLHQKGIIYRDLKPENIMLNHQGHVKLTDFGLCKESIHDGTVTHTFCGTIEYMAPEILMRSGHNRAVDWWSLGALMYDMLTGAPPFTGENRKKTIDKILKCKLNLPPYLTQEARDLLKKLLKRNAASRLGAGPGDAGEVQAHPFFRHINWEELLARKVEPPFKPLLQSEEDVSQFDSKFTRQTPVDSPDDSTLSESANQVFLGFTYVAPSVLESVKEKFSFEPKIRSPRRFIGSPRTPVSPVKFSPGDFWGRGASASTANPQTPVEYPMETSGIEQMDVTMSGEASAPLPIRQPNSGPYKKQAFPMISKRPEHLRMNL
Sequence of 320 wild-type protein kinases (Homo sapiens, UniProt P50613) (P50613 whole entry): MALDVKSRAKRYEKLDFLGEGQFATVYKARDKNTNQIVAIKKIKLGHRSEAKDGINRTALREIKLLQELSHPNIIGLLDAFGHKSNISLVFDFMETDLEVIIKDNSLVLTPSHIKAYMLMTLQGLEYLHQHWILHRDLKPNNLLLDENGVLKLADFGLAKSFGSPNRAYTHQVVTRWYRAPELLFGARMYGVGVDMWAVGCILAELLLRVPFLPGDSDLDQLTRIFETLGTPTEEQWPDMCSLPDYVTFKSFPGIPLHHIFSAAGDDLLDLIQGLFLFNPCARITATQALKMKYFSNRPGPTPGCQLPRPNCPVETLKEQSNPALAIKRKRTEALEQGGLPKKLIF
Sequence of 320 wild-type protein kinases (Homo sapiens, UniProt Q13882) (Q13882 whole entry): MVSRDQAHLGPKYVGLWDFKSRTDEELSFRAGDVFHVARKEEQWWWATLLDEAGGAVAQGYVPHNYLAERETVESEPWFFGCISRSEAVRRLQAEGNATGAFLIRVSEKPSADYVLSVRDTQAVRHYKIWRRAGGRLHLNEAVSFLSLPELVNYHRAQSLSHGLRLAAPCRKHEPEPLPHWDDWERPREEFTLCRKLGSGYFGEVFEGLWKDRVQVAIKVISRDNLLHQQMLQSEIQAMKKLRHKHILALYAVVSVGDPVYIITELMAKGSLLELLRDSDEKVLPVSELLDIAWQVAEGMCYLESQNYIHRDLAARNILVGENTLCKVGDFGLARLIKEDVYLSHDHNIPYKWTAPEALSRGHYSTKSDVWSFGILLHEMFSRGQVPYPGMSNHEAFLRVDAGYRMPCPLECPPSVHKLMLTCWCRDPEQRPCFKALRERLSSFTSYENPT
Sequence of 320 wild-type protein kinases (Homo sapiens, UniProt P34947) (P34947 whole entry): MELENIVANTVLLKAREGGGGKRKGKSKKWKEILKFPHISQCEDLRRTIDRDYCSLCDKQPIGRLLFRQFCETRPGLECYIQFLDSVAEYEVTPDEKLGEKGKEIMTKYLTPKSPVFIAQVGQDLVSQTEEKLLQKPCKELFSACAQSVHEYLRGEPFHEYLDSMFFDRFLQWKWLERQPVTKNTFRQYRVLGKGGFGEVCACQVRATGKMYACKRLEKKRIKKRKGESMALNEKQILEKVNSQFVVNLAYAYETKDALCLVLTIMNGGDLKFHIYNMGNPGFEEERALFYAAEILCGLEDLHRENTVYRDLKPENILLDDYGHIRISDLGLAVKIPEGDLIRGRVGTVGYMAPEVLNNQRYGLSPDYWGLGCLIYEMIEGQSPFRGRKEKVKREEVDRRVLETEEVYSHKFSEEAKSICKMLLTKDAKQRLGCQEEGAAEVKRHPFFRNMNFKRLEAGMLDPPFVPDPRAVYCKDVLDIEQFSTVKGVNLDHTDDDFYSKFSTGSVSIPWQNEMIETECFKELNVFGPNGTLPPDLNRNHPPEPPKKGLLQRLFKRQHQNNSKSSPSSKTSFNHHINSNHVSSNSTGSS

On to `C#Cc1cc(Nc2ncnc3cc(OC)c(OC)cc23)ccc1Cl` [Compound 45], for which the Residual activity is recorded as 111 % of control in assay [1] (CK2-alpha2, 1.0E-06 M); 118 % of control in assay [1] (CK2-alpha2, 1.0E-07 M); 111 % of control in assay [3] (GRK5, 1.0E-06 M); 107 % of control in assay [3] (GRK5, 1.0E-07 M); 138 % of control in assay [4] (MAPKAPK2, 1.0E-06 M); 79 % of control in assay [5] (CDK7/CycH/MAT1, 1.0E-06 M). For the same molecule, the Residual activity in [5] (CDK7/CycH/MAT1, 1.0E-07 M) is 74 % of control; in [6] (1.0E-06 M), 70 % of control; in assay [6] (1.0E-07 M) it was 96 % of control; in assay [8] (ERK7, 1.0E-06 M), 90 % of control; in [8] (ERK7, 1.0E-07 M) it was 104 % of control; in [10] (DYRK4, 1.0E-06 M), 97 % of control. The Residual activity is 116 % of control in assay [10] (DYRK4, 1.0E-07 M); 93 % of control in assay [11] (MARK1, 1.0E-06 M); 93 % of control in assay [11] (MARK1, 1.0E-07 M). The entries for the “Residual activity, S6K” value in assay [2] (assay conc. 1.0E-06 M) and in assay [2] (assay conc. 1.0E-07 M) were 121 % of control and 122 % of control, respectively. Further, the “Residual activity, VRK2” value in [7] (assay conc. 1.0E-06 M) was 232 % of control; in assay [7] (assay conc. 1.0E-07 M) it was 87 % of control. Further, the “Residual activity, WNK3” value in assay [9] (assay conc. 1.0E-06 M) is listed as 105 % of control; in assay [9] (assay conc. 1.0E-07 M), 124 % of control.
As for `C#Cc1cc(Nc2ncnc3cc(I)ccc23)ccc1Cl` [Compound 41], the Residual activity in [1] (CK2-alpha2, 1.0E-06 M) is reported as 115 % of control; in assay [1] (CK2-alpha2, 1.0E-07 M), 115 % of control; in assay [3] (GRK5, 1.0E-06 M), 111 % of control; in [3] (GRK5, 1.0E-07 M), 108 % of control; in [4] (MAPKAPK2, 1.0E-07 M), 139 % of control; in assay [5] (CDK7/CycH/MAT1, 1.0E-06 M) it was 81 % of control. For the same molecule, the Residual activity in [5] (CDK7/CycH/MAT1, 1.0E-07 M) is 93 % of control; in [6] (1.0E-06 M), 110 % of control; in [6] (1.0E-07 M), 100 % of control; in assay [8] (ERK7, 1.0E-06 M) it was 96 % of control; in assay [8] (ERK7, 1.0E-07 M) it was 94 % of control; in assay [10] (DYRK4, 1.0E-06 M) it was 96 % of control. Also, the Residual activity is reported as 99 % of control in [10] (DYRK4, 1.0E-07 M); 85 % of control in assay [11] (MARK1, 1.0E-06 M); 94 % of control in assay [11] (MARK1, 1.0E-07 M). For the same molecule, the “Residual activity, S6K” value in assay [2] (assay conc. 1.0E-06 M) is 123 % of control; in assay [2] (assay conc. 1.0E-07 M) it was 135 % of control. Besides, the entries for the “Residual activity, VRK2” value in assay [7] (assay conc. 1.0E-06 M) and in assay [7] (assay conc. 1.0E-07 M) were 97 % of control and 95 % of control, respectively. In addition, the results for the “Residual activity, WNK3” value in assay [9] (assay conc. 1.0E-06 M) and in assay [9] (assay conc. 1.0E-07 M) were 115 % of control and 118 % of control, respectively.
